Assay results: publication PMC12195967, “Cobalt(II) Complexes of 4′–Nitro–Fenamic Acid: Characterization and Biological Evaluation” (Molecules, 2025)
Like-named read-outs stand apart in the source and are kept apart here.

What was measured:
Assay in all cases: Antibacterial activity, MIC
Type in all cases: cell-based
[1] = test system: Staphylococcus aureus ATCC 29213; conditions: 24 h incubation, 37°C; for MIC: read-out: MIC, S. aureus
Text: (§1) In order to evaluate the antimicrobial activity of the synthesized 4′–NO2–fenH and its Co(II) complexes 1–4, two Gram-positive (B. subtilis and S. aureus) and two Gram-negative (X. campestris and E. coli) strains were used. In general, the increased antimicrobial activity of the complexes is attributed to five main factors: (i) the chelation effect of the ligands, (ii) the chemical nature of the ligands, (iii) the nature and the nuclearity of the metal center, (iv) the total charge of the complex and (v) the presence and nature of counter ions. […]
(§2) S2 Antibacterial Activity studies
(§3) The antibacterial activity of the compounds was evaluated by determining their respective MIC values towards two Gram–(–) (Escherichia coli XL1 (E. coli) and Xanthomonas campestris ATCC 1395 (X. campestris)) and two Gram–(+) (Staphylococcus aureus ATCC 29213 (S. aureus) and Bacillus subtilis ATCC 6633 (B. subtilis)) bacterial species. Cultures of these microbial strains were grown on a rich selective agar medium and stored at 4°C. The selective media used were Nutrient Agar or Broth for B. subtilis and S. aureus, Yeast Mold Agar or Broth for X. campestris and Luria Agar or Broth for E. coli. Cells picked from the surface of the stored cultures were used to initiate liquid pre–cultures of the same selective medium at an initial turbidity of roughly 1 McFarland unit.
(§4) Pre–cultures were incubated for 24 h in a rotary shaking incubator and subsequently they were used to inoculate the test cultures used for the determination of MIC at an initial turbidity of 0.5 McFarland units. The test cultures consisted of Mueller–Hinton broth (Deben Diagnostics Ltd) containing different concentrations of the compounds. Different concentrations were achieved as follows: the compounds were freshly dissolved in DMSO to a concentration of 1 mg/mL, and they were diluted with DMSO, using the method of progressive double dilution. Therefore, working solutions with decreasing concentrations of the compounds under investigation were achieved.
(§5) The working solutions were subsequently diluted to the final desired concentration by addition to the growth medium at a proportion of 2:98. MIC values were determined as the lowest concentrations of the tested compounds that inhibited visible growth of each respective organism after a 24 h incubation. Bacterial growth was determined by measuring the turbidity of appropriately diluted cultures at 600 nm with reference to equally diluted sterile growth medium and the inhibition achieved was calculated by comparing the turbidity of each culture to the average of the turbidity of three non–inhibited cultures. All test cultures were grown in triplicates and for the determination of MIC, growth had to be inhibited in at least two cultures of the triplicate. The incubation temperature at all stages was 37°C except for X. campestris that was cultivated at 28°C [4].

[2] = test system: Xanthomonas campestris ATCC 33013; conditions: for MIC: read-out: MIC, X. campestris
Text: as §1, §2, §3, §4, §5

[3] = test system: Bacillus subtilis ATCC 6633; conditions: 24 h incubation, 37°C; for MIC: read-out: MIC, B. subtilis
Text: as §1, §2, §3, §4, §5

[4] = test system: Escherichia coli XL1; conditions: 24 h incubation, 37°C
Text: as §1, §2, §3, §4, §5

[5] = value in parentheses, 24 h incubation, 28°C

Compound | MIC ([1]; Staphylococcus aureus, ATCC29213) | MIC ([1]; Staphylococcus aureus, ATCC29213, value in parentheses) | MIC ([2]; Xanthomonas campestris, ATCC33013, 24 h) | MIC ([2]; Xanthomonas campestris, ATCC33013, value in parentheses, 24 h incubation, 28°C) | MIC ([3]; Bacillus subtilis, ATCC6633) | MIC ([3]; Bacillus subtilis, ATCC6633, value in parentheses) | MIC ([4]; Escherichia coli, XL1) | MIC ([4]; Escherichia coli, XL1, value in parentheses) | MIC, S. aureus [1] | MIC ([1]; value in parentheses) | MIC, X. campestris ([2]; 24 h incubation, 28°C) | MIC [2, 5] | MIC, B. subtilis [3] | MIC ([3]; value in parentheses) | MIC, E. coli [4] | MIC ([4]; value in parentheses)
O=C(O)c1ccccc1Nc1ccc([N+](=O)[O-])cc1 [4′–NO2–fenH, 4′–nitrofenamic acid] | 25 µg/mL | 97 µM | 25 µg/mL | 97 µM | 12.5 µg/mL | 48 µM | 25 µg/mL | 97 µM |  |  |  |  |  |  |  | 
CO.CO.CO.CO.O=C([O-])c1ccccc1Nc1ccc([N+](=O)[O-])cc1.O=C([O-])c1ccccc1Nc1ccc([N+](=O)[O-])cc1.[Co+2] [Complex 1, [Co(4′–NO2–fen)2(MeOH)4]] |  |  |  |  |  |  |  |  | 12.5 µg/mL | 18 µM | > 50 µg/mL | > 71 µM | 12.5 µg/mL | 18 µM | > 50 µg/mL | > 71 µM
O=C([O-])c1ccccc1Nc1ccc([N+](=O)[O-])cc1.O=C([O-])c1ccccc1Nc1ccc([N+](=O)[O-])cc1.[Co+2].c1ccc(Nc2ccccn2)nc1 [Complex 2, [Co(4′–NO2–fen)2(bipyam)]] |  |  |  |  |  |  |  |  | > 50 µg/mL | > 67 µM | 25 µg/mL |  | 25 µg/mL | 34 µM | > 50 µg/mL | > 67 µM
O=C([O-])c1ccccc1Nc1ccc([N+](=O)[O-])cc1.O=C([O-])c1ccccc1Nc1ccc([N+](=O)[O-])cc1.[Co+2].c1cnc2c(c1)ccc1cccnc12 [Complex 3, [Co(4′–NO2–fen)2(phen)]] |  |  |  |  |  |  |  |  | 25 µg/mL | 33 µM | 25 µg/mL | 33 µM | 25 µg/mL | 33 µM | 25 µg/mL | 33 µM
C[O-].C[O-].Cc1ccc2ccc3ccc(C)nc3c2n1.Cc1ccc2ccc3ccc(C)nc3c2n1.O=C([O-])c1ccccc1Nc1ccc([N+](=O)[O-])cc1.O=C([O-])c1ccccc1Nc1ccc([N+](=O)[O-])cc1.[Co+2].[Co+2] [Complex 4, [Co2(4′–NO2–fen)2(μ–CH3O)2(neoc)2]] |  |  |  |  |  |  |  |  | 12.5 µg/mL | 11 µM | 12.5 µg/mL | 11 µM | 12.5 µg/mL | 11 µM | > 50 µg/mL | > 45 µM
